In ChEMBL document CHEMBL1201862, “PubChem BioAssay data set” (2004):
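In this assay, cells in 96-well plates receive the compound at five concentrations for 48 hours. Endpoints are linearly interpolated between the surrounding concentrations. GI50: concentration for 50% inhibition of growth.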 Active and inactive are the calls of the source. Cut-off read from the data, not from the text of the source: active = GI50 up to about 1.1 µM and inactive = higher.

Tests used:
Assay in all cases: NCI tumour cell line growth inhibition, 48 h
786-0 = tested on: 786-0
CCRF-CEM = tested on: CCRF-CEM
COLO 205 = tested on: COLO 205
HOP-18 = tested on: HOP-18
HOP-92 = tested on: HOP-92
HT-29 = tested on: HT-29
KM-20L2 = tested on: KM-20L2
LXFL 529 = tested on: LXFL 529
M14 = tested on: M14
OVCAR-3 = tested on: OVCAR-3
OVCAR-4 = tested on: OVCAR-4
OVCAR-8 = tested on: OVCAR-8
UACC-62 = tested on: UACC-62
SR = tested on: SR
MCF7 = tested on: MCF7
NCI/ADR-RES = tested on: NCI/ADR-RES
Hs-578T = tested on: Hs-578T
MDA-N = tested on: MDA-N
PC-3 = tested on: PC-3
T47D = tested on: T47D

Structure (SMILES)	GI50 (786-0)	GI50 (CCRF-CEM)	GI50 (COLO 205)	GI50 (HOP-18)	GI50 (HOP-92)	GI50 (HT-29)	GI50 (KM-20L2)	GI50 (LXFL 529)	GI50 (M14)	GI50 (OVCAR-3)	GI50 (OVCAR-4)	GI50 (OVCAR-8)	GI50 (UACC-62)	GI50 (SR)	GI50 (MCF7)	GI50 (NCI/ADR-RES)	GI50 (Hs-578T)	GI50 (MDA-N)	GI50 (PC-3)	GI50 (T47D)
CN1CCc2c1nc(-c1cccnc1)c1c2N(C)CC1	> 100 µM (inactive)	> 100 µM (inactive)	> 100 µM (inactive)	60.4 µM (inactive)	88.5 µM (inactive)	95.3 µM (inactive)	97.1 µM (inactive)	> 100 µM (inactive)	> 100 µM (inactive)	65.8 µM (inactive)	> 100 µM (inactive)	> 100 µM (inactive)	> 100 µM (inactive)							
Cc1ccccc1C1=C(C(=O)Nc2ccc(Cl)c(Cl)c2)NC(=S)NC1N (configuration not stated)	> 100 µM (inactive)	> 100 µM (inactive)	> 100 µM (inactive)	> 100 µM (inactive)		> 100 µM (inactive)	> 100 µM (inactive)	> 100 µM (inactive)	> 100 µM (inactive)	> 100 µM (inactive)	> 100 µM (inactive)	> 100 µM (inactive)	> 100 µM (inactive)							
Cc1ccccc1C1=[N+]([O-])c2ccccc2C1=O	17.4 µM (inactive)	18.5 µM (inactive)	15.7 µM (inactive)	19.6 µM (inactive)	49.4 µM (inactive)	14.5 µM (inactive)	17.9 µM (inactive)	14.9 µM (inactive)	18.4 µM (inactive)	12.7 µM (inactive)		16.7 µM (inactive)	20.1 µM (inactive)	54.7 µM (inactive)						
CC1=C(C(=O)NNS(=O)(=O)c2ccc(C)cc2)CC(C(=O)NNS(=O)(=O)c2ccc(C)cc2)=C(C)N1	> 100 µM (inactive)	> 10 µM (inactive)	> 100 µM (inactive)	27.1 µM (inactive)		> 100 µM (inactive)	> 100 µM (inactive)	52.1 µM (inactive)	> 100 µM (inactive)	> 100 µM (inactive)	> 100 µM (inactive)	> 100 µM (inactive)	14.3 µM (inactive)	61.1 µM (inactive)						
C/C=C1\CN2CCc3c([nH]c4ccccc34)C2CC1CCO (configuration not stated)	> 100 µM (inactive)	> 100 µM (inactive)	> 100 µM (inactive)	> 100 µM (inactive)	48 µM (inactive)	> 100 µM (inactive)	> 100 µM (inactive)	> 100 µM (inactive)	> 100 µM (inactive)	> 100 µM (inactive)	> 100 µM (inactive)	> 100 µM (inactive)		> 100 µM (inactive)						
CC(=O)OCC1OC(OC(C)=O)C(NC#N)C(OC(C)=O)C1OC(C)=O (configuration not stated)	> 100 µM (inactive)	43.7 µM (inactive)	> 100 µM (inactive)	> 100 µM (inactive)	> 100 µM (inactive)	> 100 µM (inactive)		67.9 µM (inactive)	97.7 µM (inactive)	> 100 µM (inactive)	> 100 µM (inactive)	> 100 µM (inactive)	> 100 µM (inactive)	73.5 µM (inactive)						
COc1ccc(C2C3=C(COC3=O)Oc3cc4c(cc32)OCO4)cc1 (configuration not stated)	27.2 µM (inactive)	6.46 µM (inactive)	13 µM (inactive)	18.6 µM (inactive)	14.9 µM (inactive)	3.81 µM (inactive)	11.9 µM (inactive)		17.7 µM (inactive)	7.18 µM (inactive)	27.3 µM (inactive)	36.2 µM (inactive)	10.6 µM (inactive)							
N#CC(C#N)=Cc1ccc(CP(=O)(O)O)cc1	> 100 µM (inactive)	44.2 µM (inactive)	> 100 µM (inactive)	> 100 µM (inactive)	> 100 µM (inactive)	> 100 µM (inactive)	> 100 µM (inactive)	> 100 µM (inactive)	> 100 µM (inactive)	> 100 µM (inactive)	> 100 µM (inactive)	> 100 µM (inactive)	> 100 µM (inactive)							
CN(C)CCN(C)C(=O)C1CCCN1C(=O)OCc1ccccc1 (configuration not stated)	> 100 µM (inactive)	19.4 µM (inactive)	> 100 µM (inactive)		> 100 µM (inactive)	> 100 µM (inactive)	> 100 µM (inactive)	> 100 µM (inactive)	> 100 µM (inactive)	> 100 µM (inactive)	> 100 µM (inactive)	> 100 µM (inactive)	> 100 µM (inactive)	38.6 µM (inactive)						
O=C/C(=C(/Cl)c1ccc(O)cc1)c1ccccc1	27.8 µM (inactive)	15.2 µM (inactive)	23 µM (inactive)	20.2 µM (inactive)	16.6 µM (inactive)	27.1 µM (inactive)	31 µM (inactive)	25.4 µM (inactive)	27.8 µM (inactive)	17.1 µM (inactive)	22.2 µM (inactive)	35.9 µM (inactive)	13.2 µM (inactive)	> 100 µM (inactive)						
O=C1[C@H]2C(c3ccccc3)=NN(C(=O)c3ccccc3)[C@H]2C(=O)N1c1ccccc1	> 100 µM (inactive)	> 100 µM (inactive)	> 100 µM (inactive)	68.4 µM (inactive)		> 100 µM (inactive)			> 100 µM (inactive)	> 100 µM (inactive)		> 100 µM (inactive)	> 100 µM (inactive)							
N#CC12Cc3cc4c(cc3-c3cccc(c31)CCN2C(=O)c1ccccc1)OCO4 (configuration not stated)	> 10 µM (inactive)	> 100 µM (inactive)	> 100 µM (inactive)	> 100 µM (inactive)	22.8 µM (inactive)	> 100 µM (inactive)	> 100 µM (inactive)	> 100 µM (inactive)	> 100 µM (inactive)	> 100 µM (inactive)		65.3 µM (inactive)	> 100 µM (inactive)	> 100 µM (inactive)						
COc1ccc(N2C(=O)C3c4[nH]c5ccccc5c4C4CC(C)CC(C)C4C3C2=O)cc1 (configuration not stated)	> 100 µM (inactive)	> 100 µM (inactive)	> 100 µM (inactive)	> 100 µM (inactive)	> 100 µM (inactive)	> 100 µM (inactive)	> 100 µM (inactive)	> 100 µM (inactive)	> 100 µM (inactive)		> 100 µM (inactive)	> 100 µM (inactive)	> 100 µM (inactive)	> 100 µM (inactive)						
Cc1ccccc1NC(=O)CC(=O)NNCC(=O)Nc1nnc(-c2ccccc2)s1	31.9 µM (inactive)		> 100 µM (inactive)	29 µM (inactive)		> 100 µM (inactive)	> 100 µM (inactive)	39.2 µM (inactive)	57.1 µM (inactive)	31.4 µM (inactive)	18 µM (inactive)	54.2 µM (inactive)	> 100 µM (inactive)	32.1 µM (inactive)						
O=C1CSC(C(/N=N/c2ccccc2)=C2Nc3ccccc3N2)=N1	25.8 µM (inactive)	5.79 µM (inactive)	> 100 µM (inactive)		18.5 µM (inactive)	83.4 µM (inactive)	> 100 µM (inactive)	34 µM (inactive)	70.3 µM (inactive)	27.4 µM (inactive)	> 100 µM (inactive)	39.1 µM (inactive)	31.8 µM (inactive)	12.5 µM (inactive)						
CCOC(=O)C1=C(Nc2cccc3ccccc23)OC/C1=N\NC(=O)c1ccccc1O	21 µM (inactive)	4.86 µM (inactive)	15.5 µM (inactive)	11.1 µM (inactive)	11.1 µM (inactive)	29.7 µM (inactive)	29 µM (inactive)	20.3 µM (inactive)	21.9 µM (inactive)	10.6 µM (inactive)	9.68 µM (inactive)	17 µM (inactive)	6.53 µM (inactive)	7.55 µM (inactive)						
CC1[C@@]2(CCC(C)(C)O2)O[C@@H]2C=C3C4CCC5Cc6nc7c(nc6C[C@@]5(C)C4C[C@H](O)[C@@]3(C)[C@]12O)CC1CCC2C3=C[C@H]4O[C@@]5(O[C@@](C)(CO)C[C@@H]5O)C(C)[C@@]4(O)[C@]3(C)[C@@H](O)CC2[C@]1(C)C7 (some centres not stated)	0.0168 µM (active)	0.0199 µM (active)	0.163 µM (active)		0.0524 µM (active)	0.109 µM (active)	0.0509 µM (active)	0.0254 µM (active)	0.04 µM (active)	0.736 µM (active)	0.723 µM (active)	0.753 µM (active)	0.0508 µM (active)	0.0264 µM (active)	0.00959 µM (active)	0.619 µM (active)				
COc1ccccc1/C=C\c1cc(OC)c(OC)c(OC)c1	31.2 µM (inactive)	16.7 µM (inactive)	4.46 µM (inactive)	> 100 µM (inactive)	8.65 µM (inactive)	3.97 µM (inactive)		12.9 µM (inactive)	5.85 µM (inactive)	10.2 µM (inactive)	25.8 µM (inactive)	24.5 µM (inactive)	5.9 µM (inactive)							
Cn1cnc([N+](=O)[O-])c1Sc1ccccn1	> 100 µM (inactive)	48.9 µM (inactive)	76.4 µM (inactive)	14.9 µM (inactive)	> 100 µM (inactive)	> 100 µM (inactive)		70.5 µM (inactive)	> 100 µM (inactive)	> 100 µM (inactive)	> 100 µM (inactive)	> 100 µM (inactive)	> 100 µM (inactive)	50.6 µM (inactive)						
OCC1CCC(n2cnc3c(O)ncnc32)O1 (configuration not stated)	> 1000 µM (inactive)	> 100 µM (inactive)	> 100 µM (inactive)	> 100 µM (inactive)	> 100 µM (inactive)	> 100 µM (inactive)	> 100 µM (inactive)		> 1000 µM (inactive)	> 100 µM (inactive)	> 100 µM (inactive)	> 100 µM (inactive)	> 100 µM (inactive)	> 1000 µM (inactive)	> 100 µM (inactive)	> 100 µM (inactive)	> 1000 µM (inactive)	> 1000 µM (inactive)	> 1000 µM (inactive)	> 1000 µM (inactive)
